Earlier results on 30 compounds are cited in patent US20240082270A1 (priority 2021, published 2024).

One data set addresses CB1R (Homo sapiens, UniProt P21554).
Data set [1] deals with SARS-CoV-2. The note with it: lung epithelial cells.
A further data set concerns human CBR. As to conditions: rather non-selectively.
For data set [2] the following is noted: stress and anxiety.
For the next data set, the target named is 5-HT1A receptor (Homo sapiens, UniProt P08908).
Data set [3] deals with SARS-CoV-2. As to conditions: cohort of human patients previously taking CBD.
The conditions of data set [4]: after oral CBD in rats.
The conditions of data set [5]: Lennox-Gastaut and Dravet syndrome.
In another data set the test system is mouse bladder. As to conditions: induced by acetylcholine.
The conditions of data set [6]: pharmaceutical CBD, up to 1500 mg/day for 6 weeks.
For data set [7] the following is noted: emulsified, small dispersed molecules.
Data set [8] deals with T1, SARS-CoV-2 spike protein (Severe acute respiratory syndrome coronavirus 2, UniProt P0DTC2). The note with it: allosteric as well as orthosteric ligands.
For data set [9], the system named is pseudovirus expressing the SARS-CoV-2 spike protein.
The conditions of data set [10]: animal studies.
Data set [11] deals with store-operated calcium (Ca2+) entry (SOCE). The note with it: human T lymphocytes.
The conditions of data set [12]: dog.
The conditions of data set [13]: mouse, in vivo.
Data set [14] concerns the target T1, SARS-CoV-2 spike protein.
Data set [15] concerns the target SARS-CoV-2 main proteases (Severe acute respiratory syndrome coronavirus 2, UniProt P0DTD1).
Another data set concerns mast cells. As to conditions: higher concentration.
The next data set has as its system melanoma. The note with it: inhibition of E2F1 transcription.
For data set [16] the following is noted: after 30 min ingestion.
The conditions of data set [17]: if stored properly.
Assay in data set [18]: not given
The source holds these as a separate data set.

The test system of another data set is protein kinase B. The note with it: oxidative muscles.
Data set [19] deals with CB2R (Homo sapiens, UniProt P34972).
Sequence of CB2R (Homo sapiens, UniProt P34972) (P34972 whole entry): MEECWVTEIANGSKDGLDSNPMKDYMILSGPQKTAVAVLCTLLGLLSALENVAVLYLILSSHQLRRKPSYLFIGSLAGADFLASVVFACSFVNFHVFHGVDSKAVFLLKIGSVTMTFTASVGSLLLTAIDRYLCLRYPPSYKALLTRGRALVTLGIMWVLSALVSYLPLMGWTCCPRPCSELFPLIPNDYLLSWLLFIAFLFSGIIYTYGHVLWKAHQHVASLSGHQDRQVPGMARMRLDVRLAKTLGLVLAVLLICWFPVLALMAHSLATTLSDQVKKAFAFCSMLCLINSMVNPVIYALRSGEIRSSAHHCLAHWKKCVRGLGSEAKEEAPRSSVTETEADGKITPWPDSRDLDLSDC
For data set [20] the following is noted: rectal.
Data set [21] concerns the target acylglycerol lipase, MAG1 (Homo sapiens, UniProt Q99685). As to conditions: reversible mechanism.
The subject of the next data set is mice. The note with it: inhaled from ambient air.
For data set [22] the following is noted: chronic or single dose, versus control group without piperine.
Assay in data set [23]: not given
The source holds these as a separate data set.

For data set [24], the target named is T2, CB2R (Mus musculus, UniProt P47936).
T2 construct: host or cells: wild-type mice, in vivo (oral dosing)
T2 sequence (P47936 whole entry): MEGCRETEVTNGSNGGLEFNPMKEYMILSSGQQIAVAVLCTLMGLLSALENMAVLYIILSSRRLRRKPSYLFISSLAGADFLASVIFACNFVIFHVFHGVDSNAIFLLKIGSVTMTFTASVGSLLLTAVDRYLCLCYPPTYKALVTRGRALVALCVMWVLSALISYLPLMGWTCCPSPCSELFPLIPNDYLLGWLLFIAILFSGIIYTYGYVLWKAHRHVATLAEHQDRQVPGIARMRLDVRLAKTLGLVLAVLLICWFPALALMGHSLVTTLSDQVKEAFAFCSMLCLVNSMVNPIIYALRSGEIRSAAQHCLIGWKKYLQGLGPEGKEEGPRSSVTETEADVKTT
As to conditions: oral, <5 mg-kg^−1.

For data set [25] the following is noted: skin models.

pIC50, pKi: −log10 of the molar value. Where two headings read alike, the source gives them in different places. Bounds are passed on as bounds.

Sequence of CB1R (P21554 whole entry): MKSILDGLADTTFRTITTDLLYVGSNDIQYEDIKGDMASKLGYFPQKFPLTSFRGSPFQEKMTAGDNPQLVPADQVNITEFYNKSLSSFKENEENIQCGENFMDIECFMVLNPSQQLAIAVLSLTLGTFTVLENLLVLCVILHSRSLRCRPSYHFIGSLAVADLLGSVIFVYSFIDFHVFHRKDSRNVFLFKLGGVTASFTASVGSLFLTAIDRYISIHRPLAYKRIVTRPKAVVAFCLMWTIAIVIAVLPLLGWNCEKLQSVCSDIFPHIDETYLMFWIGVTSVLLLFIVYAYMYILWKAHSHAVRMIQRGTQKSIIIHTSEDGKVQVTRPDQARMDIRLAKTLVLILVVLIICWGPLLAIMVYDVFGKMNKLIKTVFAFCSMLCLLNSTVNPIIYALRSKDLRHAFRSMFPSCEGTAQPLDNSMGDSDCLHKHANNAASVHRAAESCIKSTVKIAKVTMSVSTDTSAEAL
Sequence of 5-HT1A receptor (P08908 whole entry): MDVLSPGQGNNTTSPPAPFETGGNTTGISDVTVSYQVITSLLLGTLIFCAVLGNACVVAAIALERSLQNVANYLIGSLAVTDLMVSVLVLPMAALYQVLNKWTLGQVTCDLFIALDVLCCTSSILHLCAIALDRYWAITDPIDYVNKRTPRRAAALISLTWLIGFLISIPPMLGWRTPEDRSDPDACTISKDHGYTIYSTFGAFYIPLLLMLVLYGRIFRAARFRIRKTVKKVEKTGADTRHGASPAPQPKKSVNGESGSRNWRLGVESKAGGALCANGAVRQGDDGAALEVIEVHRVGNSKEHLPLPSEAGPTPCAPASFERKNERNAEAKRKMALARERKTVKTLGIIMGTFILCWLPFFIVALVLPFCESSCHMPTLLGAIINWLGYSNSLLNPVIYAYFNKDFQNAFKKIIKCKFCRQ
Sequence of acylglycerol lipase, MAG1 (Q99685 whole entry): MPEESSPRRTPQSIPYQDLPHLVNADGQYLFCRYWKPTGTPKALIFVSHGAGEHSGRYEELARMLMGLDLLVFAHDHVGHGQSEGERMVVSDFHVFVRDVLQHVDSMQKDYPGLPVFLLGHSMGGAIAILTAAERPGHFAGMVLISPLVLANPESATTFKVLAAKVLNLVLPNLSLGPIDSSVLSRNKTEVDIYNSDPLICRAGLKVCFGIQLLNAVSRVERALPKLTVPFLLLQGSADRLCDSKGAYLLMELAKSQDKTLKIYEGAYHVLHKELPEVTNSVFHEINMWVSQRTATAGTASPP

For the compound `CCCCC/C=C\C/C=C\C/C=C\C/C=C\CCCCOC(CO)CO` [2-AGE, 2-arachidonyl glyceryl ether], on CB1R (read-out: Ki), the negative logarithm of the Ki (pKi) (commonly −log10 of the Ki, conventionally taken in molar units) was 7.67.
Consider `C=C(C)[C@@H]1CCC(CO)=C[C@H]1c1c(O)cc(CCCCC)cc1O` [7-OH-CBD], for which the SARS-CoV-2 replication result with SARS-CoV-2 [1] was “block SARS-CoV-2 replication”.
For the compound `Oc1cc(O)c2c(c1)O[C@H](c1cc(O)c(O)c(O)c1)[C@H](O)C2` [(−)-epigallocatechin], the “concentrations at which binding to human CBR was shown” value with human CBR was “high μM concentrations”.
With `CCCCCc1cc(O)c2c(c1)OC(C)(CCC=C(C)C)C=C2` (centres unmarked) [CBC, cannabichromene], the “potency relative to CBD” value in data set [2] is recorded as “up to 10 times”.
Regarding `C=C(C)[C@@H]1CCC(C)=C[C@H]1c1c(O)cc(CCCCC)cc1O` [CBD, Cannabidiol], at 5-HT1A receptor, the “concentration that synergistically enhances other 5-HT1A receptor agonists” value was 100 nM and the “concentrations at which the 5-HT1A receptor is activated” value was “above 10 μM”. The SARS-CoV-2 replication entry with SARS-CoV-2 [1] is “block SARS-CoV-2 replication”. In addition, in the data set on SARS-CoV-2 [3], the SARS-CoV-2 infection incidence result is recorded as “significantly lower”. In addition, in data set [4], the “time of peak brain concentration” value was 6 h and the “time of peak serum level” value was 1 h. The “degradation, average values” (effect of light, after 30 days) is listed as “up to 15%”. Besides, the “degradation, average values” (stored at 37° C. for 30 days) is “up to 20%”. For the same compound, in data set [5], the “reduction in seizures rate” value is recorded as 50%. Moreover, the “ranked potency of detrusor contraction inhibition” value in the data set with mouse bladder is recorded as “CBG=THCV>CBD>CBDV, but not CBC”. In addition, the physical withdrawal symptoms entry in data set [6] is recorded as “No physical withdrawal symptoms were observed”. The sublingually absorbed entry in [7] is given as “up to 35%”.
`C=C(C)[C@@H]1CCC(C)=C[C@H]1c1c(O)cc(CCCCC)c(C(=O)O)c1O` [CBDA]: the “affinity for the spike protein” value at SARS-CoV-2 spike protein [8] was “micromolar affinity”. The “infection of human epithelial cells by pseudovirus” value in data set [9] is listed as “prevented infection”. Also, the “entry of live SARS-CoV-2 into cells” value with live SARS-CoV-2 is on record as “prevented entry”.
`C=C(C)[C@@H]1CCC(C)=C[C@H]1c1c(O)cc(CCC)cc1O` [CBDV, Cannabidivarin]: in the data set with mouse bladder, the “ranked potency of detrusor contraction inhibition” value is reported as “CBG=THCV>CBD>CBDV, but not CBC”. Besides, the “time of peak brain concentrations” value in data set [10] was 30 min.
For the compound `C=C(C)[C@@H]1CCC(C)=C[C@H]1c1c(O)cc(CCC)c(C(=O)O)c1O` [CBDVA], the “time of peak brain concentrations” value in [10] is 15 min.
Take `CCCCCc1cc(O)c(C/C=C(\C)CCC=C(C)C)c(O)c1C(=O)O` [CBGA, cannabigerolic acid]: on SARS-CoV-2 spike protein [8], the “affinity for the spike protein” value was “micromolar affinity”. Further, in data set [9], the “infection of human epithelial cells by pseudovirus” value is “prevented infection”. Moreover, the “entry of live SARS-CoV-2 into cells” value in the data set with live SARS-CoV-2 is “prevented entry”. Moreover, the “potency against SOCE (blocking CRAC currents)” value in data set [11] is recorded as “dose-dependent high potency”. Also, the “adverse effects monitored by blood testing” value in data set [12] (2 weeks of high twice daily dosing) is reported as “no adverse effects”. In addition, the oral absorption result in data set [12] (with or without food) is “orally absorbed significantly better than CBG”. In addition, in data set [13], the “effect on hyperthermia-induced seizures” value is “more effective for seizures triggered by a febrile event than CBD”. Moreover, the “time of peak brain concentrations” value in [10] was 45 min.
On to `CCCc1cc(O)c(C/C=C(\C)CCC=C(C)C)c(O)c1` [CBGV, cannabigerovarin], for which, in [13], the “effect on hyperthermia-induced seizures” value is “Neither CBG nor CBGV affected thresholds”. Also, the “time of peak brain concentrations” value in [10] is 30 min.
Regarding `CCCc1cc(O)c(C/C=C(\C)CCC=C(C)C)c(O)c1C(=O)O` [CBGVA, cannabigerovarinic acid], the “time of peak brain concentrations” value in [10] was 15 min.
In the case of `Nc1ncnc2c1ncn2[C@@H]1O[C@H](CO)C[C@H]1O` [Cordycepin, 3′-deoxyadenosine], the binding affinity on SARS-CoV-2 spike protein [14] is on record as −145.3; in data set [15] it was −180.5.
In the case of `C=CCc1ccc(O)c(OC)c1` [Eugenol], the concentration inducing apoptosis in the data set with HL-60 leukemia cells is 40 µmol/L. For the same compound, the “concentration leading to translocation of phospho-Ser15-p53 into mitochondria” value with mast cells is 700 µmol/L. For the same compound, the “concentration inhibiting melanoma growth” value in the data set on melanoma was 0.5 to 2.5 µmol⁻¹.
Take `CC(C)=CCC/C(C)=C/CO` [Geraniol]: in data set [16], the bioavailability (in general, the share of a dose that reaches the circulation, judged against a reference dose that is usually intravenous) was 92%.
Turning to `C[C@H]1CC[C@@H](C(C)(C)O)CC2=C1CC[C@@H]2C` [Guaiol], the “Shelf Life” value in data set [17] was ≥ 12 month(s).
On to `CCCCCc1cc(OC)c(C/C=C(\C)CCC=C(C)C)c(OC(=O)CCN2CCOCC2)c1` [HUM-234, Monomethoxycannabigeroyl-β-morpholinoproprionate], for which the obesity result in data set [18] (mice fed a high-fat diet (HFD)) is recorded as “prevents obesity”. The TNF-α levels entry in data set [18] (mouse, in vivo) is given as “increases TNF-α at higher doses”.
Turning to `C[C@@H](O)CC(=O)O` [R-BHB], the “inhibition of insulin-mediated phosphorylation of protein kinase B” value with protein kinase B is listed as 50%.
Consider `CCCCCc1cc(O)c(C/C=C(\C)CC/C=C(\C)CCC=C(C)C)c(O)c1` [Sesquicannabigerol], for which, at CB2R [19] (relative to CBG), the “affinity at CB2R higher than CBG” value is reported as 5 fold.
In the case of `CCCCCc1cc(OC(=O)CCC(=O)O)c2c(c1)OC(C)(C)[C@@H]1CCC(C)=C[C@@H]21` [THC-HS, THC-hemisuccinate], the bioavailability in data set [20] is listed as 70-80%.
`CCCc1cc(O)c2c(c1)OC(C)(C)[C@@H]1CCC(C)=C[C@@H]21` [THCV, tetrahydrocannabivarin]: the “ranked potency of detrusor contraction inhibition” value in the data set with mouse bladder is on record as “CBG=THCV>CBD>CBDV, but not CBC”. For the same compound, the “effect on hyperthermia-induced seizures” value in data set [13] is “resulted in seizures at lower temperature thresholds”. Further, the “time of peak brain concentrations” value in data set [10] was 30 min.
For the compound `O=C(O[C@@H]1Cc2c(O)cc(O)cc2O[C@@H]1c1cc(O)c(O)c(O)c1)c1cc(O)c(O)c(O)c1` [epigallocatechin β-gallate], the “concentrations at which binding to human CBR was shown” value in the data set with human CBR is on record as “high μM concentrations”.
For `CC(C)=CCC[C@@H](C)[C@@H]1CC[C@]2(C)C3=C(CC[C@@]12C)[C@@]1(C)CC[C@H](O)C(C)(C)[C@@H]1CC3` [euphol], the pIC50 (in general, the negative decadic logarithm of the IC50, by convention in mol/L) in data set [21] (read-out: IC50) is 6.50.
Take `C=C[C@H](O)C#CC#CC/C=C\CCCCCCC` [falcarinol]: the pKi on CB1R (read-out: Ki value, CB1R) was above 6.00.
With `C=C(C)[C@H]1CC=C(C)CC1` [limonene], the increase in motility in the data set with mice was 35.25%.
With `C=CC(C)(O)CCC=C(C)C` (centres unmarked) [linalool], the reduction in motility in the data set on mice is listed as 73%.
On to `O=C(/C=C/C=C/c1ccc2c(c1)OCO2)N1CCCCC1` [piperine, Piperine], for which the “increase in oral bioavailability of CBD” value in data set [22] is around 2.5 fold.
Consider `COC(=O)[C@]1(C)CC[C@]2(C)CC[C@]3(C)C4=CC=C5C(=CC(=O)C(O)=C5C)[C@]4(C)CC[C@@]3(C)[C@@H]2C1` [pristimerin], for which the pIC50 in data set [21] is 7.03.
With `C=C1CC/C=C(\C)CC[C@@H]2[C@@H]1CC2(C)C` [β-caryophyllene], on CB2R [19] (CB2R, full agonist), the pKi is 6.81. Also, the Tmax (in general, the time at which the peak concentration occurs) in [23] (one single oral administration) was above 1 h. For the same compound, in [23] (orally administered), the maximal onset is 1 h. On CB2R [24], the “anti-inflammatory and analgesic effects” value was “strong anti-inflammatory and analgesic effects in wild-type mice but not in CB2 receptor knockout mice”.
In the case of `CC[C@H](CC[C@@H](C)[C@H]1CC[C@H]2[C@@H]3CC=C4C[C@@H](O)CC[C@]4(C)[C@H]3CC[C@]12C)C(C)C` [β-sitosterol], in data set [25], the “reduction of chronic edema” value is on record as 41% and the “reduction of topical inflammation” value was 65%.
Take pinene: the increase in motility in the data set with mice is reported as 13.77%.
